# Reference: paper PMC10895676, “Antiviral Activity of Lipophilic Nucleoside Tetraphosphate Compounds” (Journal of Medicinal Chemistry, 2024)
# “Also recorded” adds a separate entry of the source. Where two headings read alike, the source gives them in different places.
# Tests used:
# human DNA polymerase β = molecular target: T1, human DNA polymerase β (Homo sapiens, UniProt P06746); test: Primer extension assay using human DNA polymerase β; type: biochemical; details: 60 min, 2 U, 37 °C
# T1 construct: purchased Chimerx
# Description: Encouraged by the previously obtained results that γ-phosphate-modified-d4TDPs 3, γ-monoalkylated d4TTP derivatives as well as d4TDP were accepted as substrates by HIV-RT,[49],[50],[55],[59]−[61] δ-dialkylated d4T tetraphosphate analogues 4,5, δ-monoalkylated d4T tetraphosphate analogues 20 and 24 and d4T4P were investigated in primer extension assays in the presence of HIV-RT or the three different human DNA polymerases α, β and γ. D4TTP (for the compounds 4–9) and the natural thymidine triphosphate (TTP) were used as reference compounds.
# Figure 6 Primer extension assay using HIV-RT (A), human polymerases α (B), β (C), and γ (D). (Figure 6A). Primer extension assay using HIV-RT (30 min, 6U). Lane 1: (+) dATP, dCTP, dGTP, and TTP with HIV-RT. Lane 2: (−) dATP, dCTP, dGTP, and TTP without HIV-RT. Lane 3: TTP. […] Lane 5: δ-(C4; C18)-d4T4P 4d. […] Lane 7: δ-(C18)-d4T4P 20. Lane 8: δ-C-(C18)-d4T4P 24. Lane 9: d4T4P. Lane 10: d4TTP. Lane 11: d4TDP. HIV-RT assay reaction conditions: 50 mM Tris–HCl (pH 8.6), 10 mM MgCl2, 40 mM KCl, 250 μM dNTPs, HIV-RT (6 U), 0.20 μM DNA hybrid, primer-template-hybrid 0.32 mM in a reaction volume of 10 μL, incubated at 37 °C for 0.5 h, 80 °C for 7 min. Primer extension assays: 50 mA, 45 w for 4 h. (Figure 6B). For human DNA polymerase α assay (60 min, 2 U): Lane 1: (+) dATP, dCTP, dGTP, and TTP with human polymerase α. Lane 2: (−) dATP, dCTP, dGTP, and TTP without human polymerase α. Lane 3: TTP. […] Lane 5: δ-(C4; C18)-d4T4P 4d. […] Lane 7: δ-(C18)-d4T4P 20. Lane 8: δ-C-(C18)-d4T4P 24. Lane 9: d4T4P. Lane 10: d4TTP. Human DNA polymerase α assay conditions: 60 mM Tris–HCl (pH 8), 5 mM Mg(OAc)2, 100 mM KCl, 1.0 mM dithiothreitol, 0.1 mM spermine, 0.01% (w/v) bovine serum albumin, 250 μM dNTPs, 2 U human polymerase α, 0.20 μM DNA hybrid, and primer-template-hybrid 0.32 mM in a reaction volume of 10 μL, incubated at 37 °C for 1 h, 80 °C for 7 min. Primer extension assays: 50 mA, 45 w for 3 h. (Figure 6C). For human DNA polymerase β assay (60 min, 2 U): Lane 1: (+) dATP, dCTP, dGTP, and TTP with human polymerase β. Lane 2: (−) dATP, dCTP, dGTP, and TTP without human polymerase β. Lane 3: TTP. […] Lane 5: δ-(C4; C18)-d4T4P 4d. […] Lane 7: δ-(C18)-d4T4P 20. Lane 8: δ-C-(C18)-d4T4P 24. Lane 9: d4T4P. Lane 10: d4TTP. Human DNA polymerase β assay conditions: 50 mM Tris–HCl (pH 8.7), 10 mM Mg(OAc)2, 100 mM KCl, 1.0 mM dithiothreitol, 0.1 mM spermine, 0.01% (w/v) bovine serum albumin, 15% glycerol, 250 μM dNTPs, 2 U human DNA polymerase β, 0.20 μM DNA hybrid, and primer-template-hybrid 0.32 mM in a reaction volume of 10 μL, incubated at 37 °C for 1 h, 80 °C for 7 min. Primer extension assays: 50 mA, 45 w for 3 h. (Figure 6D), For the human DNA polymerase γ assay (120 min, 2 U): Lane 1: (+) dATP, dCTP, dGTP, and TTP with human polymerase γ. Lane 2: (−) dATP, dCTP, dGTP, and TTP without human polymerase γ. Lane 3: TTP. […] Lane 5: δ-(C4; C18)-d4T4P 4d. […] Lane 7: δ-(C18)-d4T4P 20. Lane 8: δ-C-(C18)-d4T4P 24. Lane 9: d4T4P. Lane 10: d4TTP. Human polymerase γ assay conditions: 60 mM Tris–HCl (pH 8), 5 mM Mg(OAc)2, 1.0 mM dithiothreitol, 0.1 mM spermine, 0.01% (w/v) bovine serum albumin, 250 μM dNTPs, 2 U human polymerase γ, 0.5 μM MnCl2, 0.20 μM DNA hybrid, primer-template-hybrid 0.32 mM in a reaction volume of 10 μL, incubated at 37 °C for 2 h, 80 °C for 7 min. Primer extension assays: 50 mA, 45 w for 3 h.
# HIV-RT and human polymerases α, β, and γ were bought from Roboklon and Chimerx. The fluorescent-labeled primer and template were obtained from Metabion. […]
# HIV-2 (ROD) = test: Anti-HIV replication assay, HIV-2 (ROD) in wild-type CEM/0 cells; type: cell-based; details: for EC50: Human immunodeficiency virus 2, CCRF-CEM, read-out: HIV-2 (ROD) EC50; for selectivity index (SI): CC50/EC50, HIV-2 (ROD) in CEM cells
# Method in brief: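 Wild-type CEM/0 or thymidine kinase-deficient CEM/TK– T-cells (~3 × 10^5 cells/mL) were infected with 100 CCID50/mL HIV-2(ROD) in the presence of compound dilutions. After 4–5 days at 37 °C, virus-induced cytopathicity and syncytium formation were scored microscopically.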
# [1] = wild-type CEM/0 cells, mean ± SD, n = 2–3
Structure (SMILES),substrate for human DNA polymerase β (primer extension) (human DNA polymerase β),EC50 (HIV-2 (ROD); [1]) [nM],EC50 (HIV-2 (ROD)) [nM],selectivity index (SI) (HIV-2 (ROD))
"Cc1cn([C@H]2C=C[C@@H](COP(=O)(O)OP(=O)(O)OP(=O)(O)OP(=O)(O)O)O2)c(=O)[nH]c1=O [d4T4P, 2′,3′-didehydro-2′,3′-dideoxythymidine-5′-tetraphosphate]",efficiently incorporated; also recorded: substrate,220 ± 92,,
"CCCCCCCCCCCCCCCCCCP(=O)(O)OP(=O)(O)OP(=O)(O)OP(=O)(O)OC[C@@H]1C=C[C@H](n2cc(C)c(=O)[nH]c2=O)O1 [compound 24, δ-C-(Alkyl-C18)-d4T4P]",,240 ± 70,,
"CCCCCCCCCCCCCCCCCCP(=O)(OCCCC)OP(=O)(O)OP(=O)(O)OP(=O)(O)OC[C@@H]1C=C[C@H](n2cc(C)c(=O)[nH]c2=O)O1 (stereo partly shown) [5a, δ-(Alkyl-C4)-δ-C-(alkyl-C18)-d4T4P]",No incorporation of d4TMP,,330 ± 120,
"CCCCCCCCCCCCCCCCCCOP(=O)(O)OP(=O)(O)OP(=O)(O)OP(=O)(O)OC[C@@H]1C=C[C@H](n2cc(C)c(=O)[nH]c2=O)O1 [compound 20, δ-(Alkyl-C18)-d4T4P]",,500 ± 160,,>200
"CCCCCCCCCCCCCCCCCCOP(=O)(OCCCC)OP(=O)(O)OP(=O)(O)OP(=O)(O)OC[C@@H]1C=C[C@H](n2cc(C)c(=O)[nH]c2=O)O1 (stereo partly shown) [4d, δ-(Alkyl-C4; alkyl-C18)-d4T4P]",not accepted,84 ± 18,,522
